In test [1] the test system is hPIV3 C243 virus strain. It is filed as cell-based, hPIV. As to conditions: LLC-MK2 cells, hPIV3 C243, plaque reduction; read-out: EC50 against hPIV3 virus. Here is the method: Rhesus monkey kidney cells (LLC-MK2) were sourced from the ATCC, with a catalog number CCL-7.1. The cells were cultured in a DMEM culture solution in which 10% fetal bovine serum, 1% non-essential amino acids, 1% sodium pyruvate, 1% L-glutamine, 100 U/ml penicillin, and 100 μg/ml streptomycin were added.
An HPIV-3 plaque experiment culture medium consisted of a DMEM culture solution added with 2% fetal bovine serum, 1% non-essential amino acids, 1% sodium pyruvate, 1% L-glutamine, 100 U/ml penicillin, and 100 μg/ml streptomycin.
The hPIV Type 3 (hPIV3 C243) was sourced from the ATCC, with a catalog number VR-93.
This study used the plaque reduction experiment to detect the in-vitro activity of the test sample against the hPIV3 C243 virus strain, and Human Anti-HPIV3 Monoclonal Antibody, clone PIA174 was an experimental system control. The test sample and a system experimental antibody were tested at 8 concentrations in duplicated wells.
The LLC-MK2 cells were digested with trypsin and then diluted to a concentration of 400,000 cells per milliliter by using a cell culture solution containing 2% serum. The diluted cells were added to a 96-well cell test board, with 100 μL per well, corresponding to 40,000 cells per well. The cells were cultured overnight in a 37° C. incubator with 5% CO2.
On the next day, the sample diluted at a fold ratio and an equal volume of virus (approximately 200 PFU per well) were well mixed and incubated at 37° C. in 5% CO2 for 1 hour. Then, the culture solution in the 96-well cell test board was discarded, the sample virus mixed solution (100 μL) was added to the 96-well cell culture plate, and incubated at 37° C. in 5% CO2 for 2 hours. After 2 h, the sample virus mixed solution was discarded, 200 μL of an experiment culture medium containing the test sample with a corresponding concentration was added, and the culture solution contained 0.8% CMC. A final concentration of DMSO in the culture solution was 0.5%. A control antibody was directly added to the experiment culture solution containing 0.8% CMC. A cell control (cells, without compound treatment or viral infection) and a viral control (cell infection virus, without compound treatment) were set. The cells were cultured for 1 day in the 37° C. incubator with 5% CO2.
The cells were fixed with 4% paraformaldehyde, and then permeabilization was performed with 0.5% Triton X-100. After the plate was washed with DPBS, a hPIV specific antibody (1:2000 dilution) was added and incubated at 37° C. for 1.5 h. Then, a secondary antibody (1:500 dilution) was added and incubated at 37° C. for 1 hour. The secondary antibody was discarded, a TrueBlue solution was added, dyeing was performed for approximately 10 minutes; and the plate was washed with running water and then air-dried, and the number of spots in each well was counted by using a microplate imaging counter.
Raw data was used for calculating the antiviral activity of the samples, and a calculation formula was shown as follows.
% inhibition rate=100−(sample value-cell control average value)/(virus control average value-cell control average value)×100
Non-linear fitting analysis was performed on the inhibition rate of the sample by using GraphPad Prism (version 10), so as to calculate an EC50 value for the sample. A fitting formula was log (inhibitor) vs. response-Variable slope (four parameters).

Test [2] deals with T1, hMPV-N46 (127-172) (Human metapneumovirus, UniProt Q6WB98).
T1 construct: hMPV-N46 (127-172)
The experiment in a line: SPR affinity to hMPV-N46 coupled on CM5 chip. The test is classed as binding. How it is done: hMPV and hPIV were two viruses having a typical Class I fusion protein-F protein. An F protein precursor F0 was cracked into F1 and F2 subunits. […] When the compound flowed through a chip surface, changes in an SPR signal were monitored in real time, binding and dissociation processes were recorded, and a binding rate constant (ka) and a dissociation rate constant (kd) were further obtained through kinetic analysis, thereby calculating an equilibrium dissociation constant (KD=kd/ka).
A CM5 chip with a catalog number 29149603, an amino coupling reagent kit with a catalog number BR100050, HBS-EP+Buffer (10×), sodium acetate (pH 4.0), and a 10 mM glycine-HCl buffer (pH 2.0) were all purchased from GE Health.
CM5 chip coupling: Channels 2 and 4 of the CM5 chip were activated for 7 min by using a freshly-prepared mixture of 50 mM Hydroxy succinimide (NHS) and 200 mM 1-(3-Dimethylaminopropyl)-3-ethylcarbodiimide (EDC) according to 1:1; and then, hMPV-N46 or hPIV-N51 was diluted and dissolved with sodium acetate with 4.0 pH to a concentration of 30 μM, with a flow rate of 10 μl/min and time of 600 s. An experimental buffer was HBS-EP+buffer (1×). Finally, the chip was blocked with 1 M ethanolamine. The instrument was set to a temperature of 25° C.
Affinity detection: the buffer used in the experiment was HBS-EP+buffer (1×), and a multi-cycle dynamic mode was used. Channels 1 and 3 of the chip served as blank reference channels; polypeptides to be detected sequentially flowed through Channels 2 and 4 at concentrations of 0 μM, 0.04 µM, 0.12 µM, 0.37 μM, 1.11 µM, 3.33 µM, 10 µM, and 30 μM; the flow rate was 30 μl/min, binding was performed for 180 s, and dissociation was performed for 120 s. Finally, the chip was regenerated by injecting 10 mM glycine (pH 2.0). The instrument was set to a temperature of 25° C.

Each structure is given as a SMILES string. Where a SMILES comes first, the peptide text is derived from it. The star is where a group is joined. Succinyl(4-O-cholesteryl) = CC(C)CCC[C@@H](C)[C@H]1CC[C@H]2[C@@H]3CC=C4C[C@@H](OC(=O)CCC(=O)*)CC[C@]4(C)[C@H]3CC[C@]12C

T1 sequence (Q6WB98 127-172): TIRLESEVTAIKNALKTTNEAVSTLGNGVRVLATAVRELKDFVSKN

Turning to `CC[C@H](C)[C@H](NC(=O)[C@H](CO)NC(=O)[C@H](C)NC(=O)[C@H](CC(=O)O)NC(=O)[C@H](Cc1ccccc1)NC(=O)[C@H](CCC(=O)O)NC(=O)[C@H](CC(=O)O)NC(C)=O)C(=O)N[C@@H](CO)C(=O)N[C@@H](CCC(N)=O)C(=O)N[C@H](C(=O)N[C@@H](CC(N)=O)C(=O)N[C@@H](CCC(=O)O)C(=O)N[C@@H](CCCCN)C(=O)N[C@H](C(=O)N[C@@H](CC(N)=O)C(=O)N[C@@H](CCC(N)=O)C(=O)N[C@@H](CO)C(=O)N[C@@H](CC(C)C)C(=O)N[C@@H](CCC(=O)O)C(=O)N[C@@H](CCC(=O)O)C(=O)N[C@H](C(=O)N[C@@H](CCCNC(=N)N)C(=O)N[C@@H](CCCCN)C(=O)N[C@@H](CO)C(=O)N[C@@H](CC(=O)O)C(=O)N[C@@H](CCC(=O)O)C(=O)N[C@@H](CC(C)C)C(=O)N[C@@H](CC(C)C)C(=O)N[C@@H](Cc1c[nH]cn1)C(=O)N[C@@H](CC(N)=O)C(=O)N[C@@H](CCC(=O)O)C(=O)N[C@@H](C)C(=O)N[C@@H](C)C(=O)N[C@@H](C)C(=O)N[C@@H](CCCCN)C(=O)N[C@@H](CCCCNC(=O)CCC(=O)O[C@H]1CC[C@@]2(C)C(=CC[C@H]3[C@@H]4CC[C@H]([C@H](C)CCCC(C)C)[C@@]4(C)CC[C@@H]32)C1)C(N)=O)[C@@H](C)CC)[C@@H](C)CC)C(C)C` [Compound 28] (Ac-DEFDASISQVNEKINQSLEEIRKSDELLHNEAAAKK(Succinyl(4-O-cholesteryl))-NH2), the EC50 – broadly, the concentration giving half of the maximal effect – in test [1] was found to be 54.4 nM. Moreover, in test [2], the Kd (usually the constant that tells how readily two partners part at equilibrium) was 209 nM.

Regarding `CC[C@H](C)[C@H](NC(=O)[C@H](CCCCN)NC(=O)[C@H](CCC(=O)O)NC(=O)[C@H](CC(C)C)NC(=O)[C@H](CO)NC(=O)[C@H](CCC(N)=O)NC(=O)[C@H](CC(N)=O)NC(=O)[C@@H](NC(=O)[C@H](CCCCN)NC(=O)[C@H](CCC(=O)O)NC(=O)[C@H](CC(N)=O)NC(=O)[C@@H](NC(=O)[C@H](CCC(N)=O)NC(=O)[C@H](CO)NC(=O)[C@H](C)NC(=O)[C@H](CC(=O)O)NC(=O)[C@H](Cc1ccccc1)NC(=O)[C@@H](NC(=O)[C@H](CC(C)C)NC(=O)[C@H](CCC(=O)O)NC(=O)[C@H](CC(=O)O)NC(=O)[C@H](Cc1ccc(O)cc1)NC(C)=O)C(C)C)C(C)C)[C@@H](C)CC)C(=O)N[C@@H](CCCNC(=N)N)C(=O)N[C@@H](CCCCN)C(=O)N[C@@H](CO)C(=O)N[C@@H](CC(=O)O)C(=O)N[C@@H](CCC(=O)O)C(=O)N[C@@H](CC(C)C)C(=O)N[C@@H](CC(C)C)C(=O)N[C@@H](Cc1c[nH]cn1)C(=O)N[C@@H](CC(N)=O)C(=O)N[C@H](C(=O)N[C@@H](CCC(=O)O)C(=O)N[C@@H](C)C(=O)N[C@@H](C)C(=O)N[C@@H](C)C(=O)N[C@@H](CCCCN)C(=O)N[C@@H](CCCCNC(=O)CCC(=O)O[C@H]1CC[C@@]2(C)C(=CC[C@H]3[C@@H]4CC[C@H]([C@H](C)CCCC(C)C)[C@@]4(C)CC[C@@H]32)C1)C(N)=O)C(C)C` [Compound 30] (Ac-YDELVFDASQVNEKINQSLEKIRKSDELLHNVEAAAKK(Succinyl(4-O-cholesteryl))-NH2), the EC50 in test [1] came to 48.2 nM. Moreover, the dissociation constant (Kd) in test [2] was 187 nM.

As to `CC[C@H](C)[C@H](NC(=O)[C@H](CCCCN)NC(=O)[C@H](CCCCN)NC(=O)[C@H](CC(C)C)NC(=O)[C@H](CO)NC(=O)[C@H](CCC(=O)O)NC(=O)[C@H](CCC(=O)O)NC(=O)[C@@H](NC(=O)[C@H](CCCCN)NC(=O)[C@H](CCCCN)NC(=O)[C@H](CC(N)=O)NC(=O)[C@@H](NC(=O)[C@H](CCC(=O)O)NC(=O)[C@H](CCC(=O)O)NC(=O)[C@@H](NC(=O)[C@H](CCCCN)NC(=O)[C@H](CCCCN)NC(=O)[C@H](CC(=O)O)NC(=O)[C@H](Cc1ccccc1)NC(=O)[C@H](CCC(=O)O)NC(=O)[C@H](CC(=O)O)NC(=O)[C@H](Cc1c[nH]c2ccccc12)NC(C)=O)[C@@H](C)CC)C(C)C)[C@@H](C)CC)C(=O)N[C@@H](CCC(=O)O)C(=O)N[C@@H](CCC(=O)O)C(=O)N[C@@H](CO)C(=O)N[C@@H](CC(=O)O)C(=O)N[C@@H](CCCCN)C(=O)N[C@@H](CCCCN)C(=O)N[C@@H](CC(C)C)C(=O)N[C@@H](CCC(=O)O)C(=O)N[C@@H](CCC(=O)O)C(=O)N[C@H](C(=O)N[C@@H](CC(N)=O)C(=O)N[C@@H](C)C(=O)N[C@@H](CCC(=O)O)C(=O)N[C@@H](C)C(=O)N[C@@H](C)C(=O)N[C@@H](C)C(=O)N[C@@H](CCCCN)C(=O)N[C@@H](CCCCNC(=O)CCC(=O)O[C@H]1CC[C@@]2(C)C(=CC[C@H]3[C@@H]4CC[C@H]([C@H](C)CCCC(C)C)[C@@]4(C)CC[C@@H]32)C1)C(N)=O)C(C)C` [Compound 40] (Ac-WDEFDKKIEEVNKKIEESLKKIEESDKKLEEVNAEAAAKK(Succinyl(4-O-cholesteryl))-NH2), in test [1], the EC50 was 22.2 nM. The affinity in test [2], expressed as Kd, was 2470 nM.

As for `CC[C@H](C)[C@H](NC(=O)[C@H](CCCCN)NC(=O)[C@H](CCCCN)NC(=O)[C@H](CC(C)C)NC(=O)[C@H](CO)NC(=O)[C@H](CCC(=O)O)NC(=O)[C@H](CCC(=O)O)NC(=O)[C@@H](NC(=O)[C@H](CCCCN)NC(=O)[C@H](CCCCN)NC(=O)[C@H](CC(N)=O)NC(=O)[C@@H](NC(=O)[C@H](CCC(=O)O)NC(=O)[C@H](CCC(=O)O)NC(=O)[C@@H](NC(=O)[C@H](CCCCN)NC(=O)[C@H](CCCCN)NC(=O)[C@H](CC(=O)O)NC(=O)[C@H](Cc1ccccc1)NC(=O)[C@H](CCC(=O)O)NC(=O)[C@H](CC(=O)O)NC(=O)[C@H](Cc1c[nH]c2ccccc12)NC(C)=O)[C@@H](C)CC)C(C)C)[C@@H](C)CC)C(=O)N[C@@H](CCC(=O)O)C(=O)N[C@@H](CCC(=O)O)C(=O)N[C@@H](CO)C(=O)N[C@@H](CC(=O)O)C(=O)N[C@@H](CCCCN)C(=O)N[C@@H](CCCCN)C(=O)N[C@@H](CC(C)C)C(=O)N[C@@H](CCC(=O)O)C(=O)N[C@@H](CCC(=O)O)C(=O)N[C@H](C(=O)N[C@@H](CC(N)=O)C(=O)N[C@@H](CCC(=O)O)C(=O)N[C@@H](C)C(=O)N[C@@H](C)C(=O)N[C@@H](C)C(=O)N[C@@H](CCCCN)C(=O)N[C@@H](CCCCNC(=O)CCC(=O)O[C@H]1CC[C@@]2(C)C(=CC[C@H]3[C@@H]4CC[C@H]([C@H](C)CCCC(C)C)[C@@]4(C)CC[C@@H]32)C1)C(N)=O)C(C)C` [Compound 41] (Ac-WDEFDKKIEEVNKKIEESLKKIEESDKKLEEVNEAAAKK(Succinyl(4-O-cholesteryl))-NH2), in test [1], the EC50 came out at 71.1 nM. In addition, in test [2], the dissociation constant Kd was found to be 4730 nM.
